Assay results: patent publication US8871934B2, “Fluorene compound and pharmaceutical use thereof” (Japan Tobacco Inc., priority 2008, dated 2014)

The molecules below were run against human PDHK2 (hPDHK2) (Homo sapiens (Human), UniProt Q15119) (assay: Inhibitory action of PDHK activity in vitro (kinase reaction, residual PDH activity measured)). Conditions: PDHK inhibitory activity, class symbol of IC50.
Format: biochemical
With `OC1(C(F)(F)F)c2ccccc2-c2c(-c3cnn(C45CC6CC(CC(C6)C4)C5)c3)cccc21` (stereo not drawn) [compound 522] the IC50 was less than 100 nM. `CC(C)(C)n1cc(-c2cccc3c2-c2ccccc2C3(O)C(F)(F)F)cn1` (stereo not drawn) [compound 523] showed an IC50 of less than 100 nM. For `CC(C)(C)Cn1cc(-c2cccc3c2-c2ccccc2C3(O)C(F)(F)F)cn1` (stereo not drawn) [compound 524], the IC50 was less than 100 nM. In the case of `OC1(C(F)(F)F)c2ccccc2-c2c(Cl)cc(F)cc21` (stereo not drawn) [compound 525], the IC50 is reported as 100 to 1000 nM. In the case of `CC(=O)NCCn1cc(-c2cccc3c2-c2ccccc2C3(O)C(F)(F)F)cn1` (stereo not drawn) [compound 527], the IC50 is reported as less than 100 nM. With `CC(C)n1cc(-c2cc(C(N)=O)c3c(c2)C(O)(C(F)(F)F)c2ccccc2-3)cn1` (stereo not drawn) [compound 528] the IC50 was less than 100 nM. For `CCn1cc(-c2cc(C(N)=O)c3c(c2)C(O)(C(F)(F)F)c2ccccc2-3)cn1` (stereo not drawn) [compound 530], the IC50 was less than 100 nM. `CC(=O)N(C)CCn1cc(-c2cccc3c2-c2ccccc2C3(O)C(F)(F)F)cn1` (stereo not drawn) [compound 535] was tested, and the IC50 was 100 to 1000 nM. `NC(=O)c1cc(-c2cnn(CCO)c2)cc2c1-c1ccccc1C2(O)C(F)(F)F` (stereo not drawn) [compound 536] gave an IC50 of less than 100 nM. Molecule `OC12CC3CC(C1)CC(Cn1cc(-c4cccc5c4-c4ccccc4C5(O)C(F)(F)F)cn1)(C3)C2` (stereo not drawn) [compound 547] has an IC50 of less than 100 nM. For `O=C(c1cc(CO)c2c(c1)C(O)(C(F)(F)F)c1ccccc1-2)N1CCC1` (stereo not drawn) [compound 556], the IC50 was less than 100 nM. Work on `Cn1cc(-c2cc(CO)cc3c2-c2ccccc2C3(O)C(F)(F)F)cn1` (stereo not drawn) [compound 557] yielded an IC50 of less than 100 nM. `Cn1cc(-c2cc(N3CCC(C(=O)O)CC3)cc3c2-c2ccccc2C3(O)C(F)(F)F)cn1` (stereo not drawn) [compound 558] showed an IC50 of less than 100 nM. `OC1(C(F)(F)F)c2ccccc2-c2ccc(-n3cccn3)cc21` (stereo not drawn) [compound 560] showed an IC50 of 100 to 1000 nM. `Cn1cc(-c2cnc3c(c2)C(O)(C(F)(F)F)c2ccccc2-3)cn1` (stereo not drawn) [compound 562] gave an IC50 of less than 100 nM. `OCCn1cc(-c2cnc3c(c2)C(O)(C(F)(F)F)c2ccccc2-3)cn1` (stereo not drawn) [compound 563] showed an IC50 of less than 100 nM. `Cn1cc(-c2cc(O)cc3c2-c2ccccc2C3(O)C(F)(F)F)cn1` (stereo not drawn) [compound 564] showed an IC50 of 100 to 1000 nM. `O=C(O)CCn1cc(-c2cnc3c(c2)C(O)(C(F)(F)F)c2ccccc2-3)cn1` (stereo not drawn) [compound 568] was tested, and the IC50 was less than 100 nM. Work on `Cn1cc(-c2cc(N3CCOCC3)cc3c2-c2ccccc2C3(O)C(F)(F)F)cn1` (stereo not drawn) [compound 569] yielded an IC50 of less than 100 nM. Work on `Cn1cc(-c2cc(CO)c3c(c2)C(O)(C(F)(F)F)c2ccccc2-3)cn1` (stereo not drawn) [compound 570] yielded an IC50 of 100 to 1000 nM. In the case of `Cn1cc(-c2cc(OCC(O)CO)cc3c2-c2ccccc2C3(O)C(F)(F)F)cn1` (stereo not drawn) [compound 571], the IC50 is reported as less than 100 nM. With `O=C(c1cc(CO)c2c(c1)C(O)(C(F)(F)F)c1ccccc1-2)N1CCCC1` (stereo not drawn) [compound 572] the IC50 was 100 to 1000 nM. `C#Cc1cc(-c2cnn(C)c2)cc2c1-c1ccccc1C2(O)C(F)(F)F` (stereo not drawn) [compound 578] was tested, and the IC50 was less than 100 nM. `Cn1cc(-c2cc(-c3cnn(C)c3)c3c(c2)C(O)(C(F)(F)F)c2ccccc2-3)cn1` (stereo not drawn) [compound 579] gave an IC50 of less than 100 nM. Molecule `OCCn1cc(-c2cc(-c3cnn(CCO)c3)c3c(c2)C(O)(C(F)(F)F)c2ccccc2-3)cn1` (stereo not drawn) [compound 580] has an IC50 of less than 100 nM. `O=C1CCCN1CCOc1cc(CO)c2c(c1)C(O)(C(F)(F)F)c1ccccc1-2` (stereo not drawn) [compound 583] showed an IC50 of less than 100 nM. Molecule `Cc1cc(-c2cnn(CCO)c2)cc2c1-c1ccccc1C2(O)C(F)(F)F` (stereo not drawn) [compound 584] has an IC50 of less than 100 nM. `CC(=O)c1cc(-c2cnn(CCO)c2)cc2c1-c1ccccc1C2(O)C(F)(F)F` (stereo not drawn) [compound 585] gave an IC50 of less than 100 nM. Molecule `CC(O)c1cc(-c2cnn(CCO)c2)cc2c1-c1ccccc1C2(O)C(F)(F)F` (stereo not drawn) [compound 586] has an IC50 of 100 to 1000 nM. With `CCn1cc(-c2cc(C(C)=O)c3c(c2)C(O)(C(F)(F)F)c2ccccc2-3)cn1` (stereo not drawn) [compound 587] the IC50 was less than 100 nM.

Same assay, conditions: class symbol of IC50, read-out: PDHK inhibitory activity
For `Cc1nn(C)c(C)c1-c1ccc2c(c1)C(O)(C(F)(F)F)c1ccccc1-2` (stereo not drawn) [compound 555], the IC50 was greater than 1000 nM. Work on `OC1(C(F)(F)F)c2ccccc2-c2ccc(Cn3cccn3)cc21` (stereo not drawn) [compound 559] yielded an IC50 greater than 1000 nM. For `Cc1nn(C)c(C)c1-c1cccc2c1-c1ccccc1C2(O)C(F)(F)F` (stereo not drawn) [compound 567], the IC50 was greater than 1000 nM.

Same assay, conditions: read-out: PDHK inhibitory activity IC50
`OC1(C(F)(F)F)c2ccccc2-c2c(-c3cnn(C45CC6CC(CC(C6)C4)C5)c3)cccc21` (stereo not drawn) [compound 522] gave an IC50 of 61 nM. For `CC(C)(C)n1cc(-c2cccc3c2-c2ccccc2C3(O)C(F)(F)F)cn1` (stereo not drawn) [compound 523], the IC50 was 48 nM. With `CC(C)(C)Cn1cc(-c2cccc3c2-c2ccccc2C3(O)C(F)(F)F)cn1` (stereo not drawn) [compound 524] the IC50 was 87 nM. `OC1(C(F)(F)F)c2ccccc2-c2c(Cl)cc(F)cc21` (stereo not drawn) [compound 525] was tested, and the IC50 was 677 nM. In the case of `CC(=O)NCCn1cc(-c2cccc3c2-c2ccccc2C3(O)C(F)(F)F)cn1` (stereo not drawn) [compound 527], the IC50 is reported as 79 nM. `CC(C)n1cc(-c2cc(C(N)=O)c3c(c2)C(O)(C(F)(F)F)c2ccccc2-3)cn1` (stereo not drawn) [compound 528] showed an IC50 of 49 nM. `CCn1cc(-c2cc(C(N)=O)c3c(c2)C(O)(C(F)(F)F)c2ccccc2-3)cn1` (stereo not drawn) [compound 530] was tested, and the IC50 was 43 nM. `CC(=O)N(C)CCn1cc(-c2cccc3c2-c2ccccc2C3(O)C(F)(F)F)cn1` (stereo not drawn) [compound 535] showed an IC50 of 197 nM. `NC(=O)c1cc(-c2cnn(CCO)c2)cc2c1-c1ccccc1C2(O)C(F)(F)F` (stereo not drawn) [compound 536] gave an IC50 of 54 nM. `OC12CC3CC(C1)CC(Cn1cc(-c4cccc5c4-c4ccccc4C5(O)C(F)(F)F)cn1)(C3)C2` (stereo not drawn) [compound 547] gave an IC50 of 62 nM. `Cc1nn(C)c(C)c1-c1ccc2c(c1)C(O)(C(F)(F)F)c1ccccc1-2` (stereo not drawn) [compound 555] gave an IC50 greater than 1000 nM. `O=C(c1cc(CO)c2c(c1)C(O)(C(F)(F)F)c1ccccc1-2)N1CCC1` (stereo not drawn) [compound 556] showed an IC50 of 53 nM. `Cn1cc(-c2cc(CO)cc3c2-c2ccccc2C3(O)C(F)(F)F)cn1` (stereo not drawn) [compound 557] showed an IC50 of 77 nM. `Cn1cc(-c2cc(N3CCC(C(=O)O)CC3)cc3c2-c2ccccc2C3(O)C(F)(F)F)cn1` (stereo not drawn) [compound 558] was tested, and the IC50 was 81 nM. `OC1(C(F)(F)F)c2ccccc2-c2ccc(Cn3cccn3)cc21` (stereo not drawn) [compound 559] gave an IC50 greater than 1000 nM. With `OC1(C(F)(F)F)c2ccccc2-c2ccc(-n3cccn3)cc21` (stereo not drawn) [compound 560] the IC50 was 970 nM. In the case of `Cn1cc(-c2cnc3c(c2)C(O)(C(F)(F)F)c2ccccc2-3)cn1` (stereo not drawn) [compound 562], the IC50 is reported as 59 nM. `OCCn1cc(-c2cnc3c(c2)C(O)(C(F)(F)F)c2ccccc2-3)cn1` (stereo not drawn) [compound 563] was tested, and the IC50 was 63 nM. Molecule `Cn1cc(-c2cc(O)cc3c2-c2ccccc2C3(O)C(F)(F)F)cn1` (stereo not drawn) [compound 564] has an IC50 of 105 nM. With `Cc1nn(C)c(C)c1-c1cccc2c1-c1ccccc1C2(O)C(F)(F)F` (stereo not drawn) [compound 567] the IC50 was greater than 1000 nM. `O=C(O)CCn1cc(-c2cnc3c(c2)C(O)(C(F)(F)F)c2ccccc2-3)cn1` (stereo not drawn) [compound 568] was tested, and the IC50 was 83 nM. `Cn1cc(-c2cc(N3CCOCC3)cc3c2-c2ccccc2C3(O)C(F)(F)F)cn1` (stereo not drawn) [compound 569] gave an IC50 of 44 nM. With `Cn1cc(-c2cc(CO)c3c(c2)C(O)(C(F)(F)F)c2ccccc2-3)cn1` (stereo not drawn) [compound 570] the IC50 was 110 nM. `Cn1cc(-c2cc(OCC(O)CO)cc3c2-c2ccccc2C3(O)C(F)(F)F)cn1` (stereo not drawn) [compound 571] showed an IC50 of 50 nM. Work on `O=C(c1cc(CO)c2c(c1)C(O)(C(F)(F)F)c1ccccc1-2)N1CCCC1` (stereo not drawn) [compound 572] yielded an IC50 of 109 nM. `C#Cc1cc(-c2cnn(C)c2)cc2c1-c1ccccc1C2(O)C(F)(F)F` (stereo not drawn) [compound 578] showed an IC50 of 78 nM. For `Cn1cc(-c2cc(-c3cnn(C)c3)c3c(c2)C(O)(C(F)(F)F)c2ccccc2-3)cn1` (stereo not drawn) [compound 579], the IC50 was 19 nM. `OCCn1cc(-c2cc(-c3cnn(CCO)c3)c3c(c2)C(O)(C(F)(F)F)c2ccccc2-3)cn1` (stereo not drawn) [compound 580] showed an IC50 of 21 nM. With `O=C1CCCN1CCOc1cc(CO)c2c(c1)C(O)(C(F)(F)F)c1ccccc1-2` (stereo not drawn) [compound 583] the IC50 was 64 nM. `Cc1cc(-c2cnn(CCO)c2)cc2c1-c1ccccc1C2(O)C(F)(F)F` (stereo not drawn) [compound 584] was tested, and the IC50 was 77 nM. Molecule `CC(=O)c1cc(-c2cnn(CCO)c2)cc2c1-c1ccccc1C2(O)C(F)(F)F` (stereo not drawn) [compound 585] has an IC50 of 26 nM. `CC(O)c1cc(-c2cnn(CCO)c2)cc2c1-c1ccccc1C2(O)C(F)(F)F` (stereo not drawn) [compound 586] showed an IC50 of 513 nM. Molecule `CCn1cc(-c2cc(C(C)=O)c3c(c2)C(O)(C(F)(F)F)c2ccccc2-3)cn1` (stereo not drawn) [compound 587] has an IC50 of 21 nM.
